Measured values: patent US12435044B2, “Pyridazinone herbicides and pyridazinone intermediates used to prepare a herbicide” (FMC Corporation, priority 2018, dated 2025)

Legend:
Experiment in all cases: Test G preemergence, mixtures of Cpd. No. 20 with (b15C1)
Assay type in all cases: in vivo
[1] = system: barnyardgrass (ECHCG; Echinochloa crus-galli)
Source text: (§1) This test evaluated the effect of mixtures of Cpd. No. 20 with (b15C1) on several plant species. Seeds of plant species selected from corn (ZEAMD; Zea mays, cv. ‘Pioneer 1184’), soybean (GLXMA; Glycine max, cv. Pioneer 35T58), giant foxtail (SETFA; Setaria faberi), barnyardgrass (ECHCG; Echinochloa crus-galli), large crabgrass (DIGSA; Digitaria sanguinalis), palmer amaranth (AMAPA; Amaranthus palmeri), common waterhemp (AMATU; Amaranthus rudis), and common ragweed (AMBEL; Ambrosia artemisiifolia) were planted in pots containing Tama Silt Loam soil and treated preemergence with a directed soil spray using test chemicals formulated in a non-phytotoxic solvent mixture which included a surfactant.
(§2) Treated plants and untreated controls were maintained in a greenhouse for approximately 21 d, after which time all treated plants were compared to untreated controls and visually evaluated for injury. Plant response ratings, summarized in Table G, are based on a 0 to 100 scale where 0 is no effect and 100 is complete control. A dash (-) response means no test result. Test results are presented as a mean of 4 reps.

[2] = system: large crabgrass (DIGSA; Digitaria sanguinalis)
Source text: as §1, §2

[3] = system: palmer amaranth (AMAPA; Amaranthus palmeri)
Source text: as §1, §2

[4] = system: common waterhemp (AMATU; Amaranthus rudis)
Source text: as §1, §2

[5] = system: common ragweed (AMBEL; Ambrosia artemisiifolia)
Source text: as §1, §2

[6] = system: corn (ZEAMD; Zea mays, cv. ‘Pioneer 1184’)
Source text: as §1, §2

[7] = system: giant foxtail (SETFA; Setaria faberi)
Source text: as §1, §2

[8] = system: soybean (GLXMA; Glycine max, cv. Pioneer 35T58)
Source text: as §1, §2

## FC(F)c1cc(-c2c(Cl)cccc2Oc2ncc(Cl)cn2)on1 [(b15C1), 5-chloro-2-[3-chloro-2-[3-(difluoromethyl)-5-isoxazolyl]phenoxy]-pyrimidine, reference compound]
[1]; (b15C1) 8 g a.i./ha alone
  Plant response rating (0 to 100 scale): 0
[1]; (b15C1) 16 g a.i./ha alone
  Plant response rating (0 to 100 scale): 0
[1]; (b15C1) 31 g a.i./ha alone
  Plant response rating (0 to 100 scale): 35
[2]; (b15C1) 8 g a.i./ha alone
  Plant response rating (0 to 100 scale): 54
[2]; (b15C1) 16 g a.i./ha alone
  Plant response rating (0 to 100 scale): 90
[2]; (b15C1) 31 g a.i./ha alone
  Plant response rating (0 to 100 scale): 100
[3]; (b15C1) 8 g a.i./ha alone
  Plant response rating (0 to 100 scale): 60
[3]; (b15C1) 16 g a.i./ha alone
  Plant response rating (0 to 100 scale): 88
[3]; (b15C1) 31 g a.i./ha alone
  Plant response rating (0 to 100 scale): 97
[4]; (b15C1) 8 g a.i./ha alone
  Plant response rating (0 to 100 scale): 0
[4]; (b15C1) 16 g a.i./ha alone
  Plant response rating (0 to 100 scale): 0
[4]; (b15C1) 31 g a.i./ha alone
  Plant response rating (0 to 100 scale): 20
[5]; (b15C1) 8 g a.i./ha alone
  Plant response rating (0 to 100 scale): 54
[5]; (b15C1) 16 g a.i./ha alone
  Plant response rating (0 to 100 scale): 90
[5]; (b15C1) 31 g a.i./ha alone
  Plant response rating (0 to 100 scale): 100
[6]; (b15C1) 8 g a.i./ha alone
  Plant response rating (0 to 100 scale): 0
[6]; (b15C1) 16 g a.i./ha alone
  Plant response rating (0 to 100 scale): 0
[6]; (b15C1) 31 g a.i./ha alone
  Plant response rating (0 to 100 scale): 0
[7]; (b15C1) 8 g a.i./ha alone
  Plant response rating (0 to 100 scale): 5
[7]; (b15C1) 16 g a.i./ha alone
  Plant response rating (0 to 100 scale): 34
[7]; (b15C1) 31 g a.i./ha alone
  Plant response rating (0 to 100 scale): 74
[8]; (b15C1) 8 g a.i./ha alone
  Plant response rating (0 to 100 scale): 0
[8]; (b15C1) 16 g a.i./ha alone
  Plant response rating (0 to 100 scale): 0
[8]; (b15C1) 31 g a.i./ha alone
  Plant response rating (0 to 100 scale): 0
